Numbered stars: 1 amine (or outer) side, 2 acyl side, 3 side chain; on linkers, the order of the positions; unused ones are H or OH. Bridge positions count the residues as written; N and C are the ends. Square brackets hold non-standard residues; d marks the D form. Peptide text beside a SMILES is read from it. I, II: the chains in the order shown. * marks the point of attachment. Phe(4-tBu) = CC(C)(C)c1ccc(C[C@H](N)C(=O)O)cc1; Phe(2-CONH2) = NC(=O)c1ccccc1C[C@H](N)C(=O)O; 1Nal = N[C@@H](Cc1cccc2ccccc12)C(=O)O; 2Nal = N[C@@H](Cc1ccc2ccccc2c1)C(=O)O; d1Nal = N[C@H](Cc1cccc2ccccc12)C(=O)O; Diglycolyl = O=C(COCC(=O)[*:2])[*:1]; Oleoyl = CCCCCCCC/C=C\CCCCCCCC(=O)*; NMeR = CN[C@@H](CCCNC(=N)N)C(=O)O; Palmitoyl = CCCCCCCCCCCCCCCC(=O)*; Tic = O=C(O)[C@@H]1Cc2ccccc2CN1; β3hE = N[C@@H](CCC(=O)O)CC(=O)O; Pen = CC(C)(S)[C@H](N)C(=O)O; Isovaleryl = CC(C)CC(=O)*

Sequence of α4β7 (P13612 34-1032): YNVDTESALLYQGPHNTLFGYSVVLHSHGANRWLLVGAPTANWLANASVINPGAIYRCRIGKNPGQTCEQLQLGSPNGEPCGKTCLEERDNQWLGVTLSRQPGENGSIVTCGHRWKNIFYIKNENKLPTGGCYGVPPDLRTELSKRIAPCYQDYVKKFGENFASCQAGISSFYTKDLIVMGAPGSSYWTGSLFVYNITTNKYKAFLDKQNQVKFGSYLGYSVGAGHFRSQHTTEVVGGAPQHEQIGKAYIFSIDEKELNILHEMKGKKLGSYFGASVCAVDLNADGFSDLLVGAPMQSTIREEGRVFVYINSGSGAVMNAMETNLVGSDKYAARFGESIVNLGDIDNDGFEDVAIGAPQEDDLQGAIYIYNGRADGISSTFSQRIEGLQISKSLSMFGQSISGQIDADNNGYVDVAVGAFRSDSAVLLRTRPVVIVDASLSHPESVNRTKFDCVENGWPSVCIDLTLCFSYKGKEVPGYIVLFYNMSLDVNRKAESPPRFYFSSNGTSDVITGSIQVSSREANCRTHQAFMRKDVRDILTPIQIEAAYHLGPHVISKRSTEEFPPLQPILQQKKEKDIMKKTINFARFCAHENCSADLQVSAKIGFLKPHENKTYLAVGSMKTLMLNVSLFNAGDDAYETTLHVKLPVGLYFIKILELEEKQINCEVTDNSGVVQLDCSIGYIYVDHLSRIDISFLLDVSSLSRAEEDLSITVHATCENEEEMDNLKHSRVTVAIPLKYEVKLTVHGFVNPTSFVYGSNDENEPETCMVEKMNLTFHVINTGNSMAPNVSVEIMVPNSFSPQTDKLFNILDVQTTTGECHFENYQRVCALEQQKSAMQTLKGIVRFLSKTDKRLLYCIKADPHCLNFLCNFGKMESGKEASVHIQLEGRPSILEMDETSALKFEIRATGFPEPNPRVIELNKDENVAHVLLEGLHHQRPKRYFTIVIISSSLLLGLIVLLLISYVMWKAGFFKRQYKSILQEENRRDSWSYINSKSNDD
Sequence of α4β7 (P26010 20-798): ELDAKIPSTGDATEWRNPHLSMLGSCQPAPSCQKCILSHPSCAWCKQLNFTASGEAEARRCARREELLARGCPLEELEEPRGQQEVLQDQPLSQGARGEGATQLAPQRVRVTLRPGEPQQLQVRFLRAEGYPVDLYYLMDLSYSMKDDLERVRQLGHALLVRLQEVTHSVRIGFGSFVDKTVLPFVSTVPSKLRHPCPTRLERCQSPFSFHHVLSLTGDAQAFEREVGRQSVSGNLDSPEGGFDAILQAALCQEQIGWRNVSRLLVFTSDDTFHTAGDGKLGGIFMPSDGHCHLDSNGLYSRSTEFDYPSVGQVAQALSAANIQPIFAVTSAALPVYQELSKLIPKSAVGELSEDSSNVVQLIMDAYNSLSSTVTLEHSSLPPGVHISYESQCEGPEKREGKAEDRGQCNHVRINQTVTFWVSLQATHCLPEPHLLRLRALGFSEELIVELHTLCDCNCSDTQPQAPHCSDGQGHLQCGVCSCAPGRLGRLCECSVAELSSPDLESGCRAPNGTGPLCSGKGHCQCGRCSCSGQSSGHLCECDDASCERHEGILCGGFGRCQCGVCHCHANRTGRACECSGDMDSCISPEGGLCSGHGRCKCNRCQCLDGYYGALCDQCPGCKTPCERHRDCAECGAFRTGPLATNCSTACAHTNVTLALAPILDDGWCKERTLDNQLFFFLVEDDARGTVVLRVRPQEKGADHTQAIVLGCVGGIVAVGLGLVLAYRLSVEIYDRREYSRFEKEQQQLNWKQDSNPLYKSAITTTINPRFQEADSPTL

For this assay, the target named is α4β7 (Homo sapiens, UniProt P13612+P26010). The assay is described as follows: α4β7-MAdCAM Cell Adhesion Assay (RPMI 8866 human cells). The format is cell-based. Also noted: host or cells: RPMI 8866 human B lymphoblastoid cells. The note with it: Table 3-B, Potency (α4β7); range classes; read-out: α4β7 cell (Hu) IC50. A digest of the protocol:
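Washed RPMI 8866 cells (200,000/well) in DMEM with 0.1% BSA, 10 mM HEPES pH 7, 1 mM MnCl2 adhered to rh MAdCAM-1/Fc-coated wells with serially diluted peptides, 30-45 min at 37 °C. After three washes, bound cells quantified by MTT, A570, cell-free background subtracted for dose response.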
Regarding `CC(=O)N[C@@H]1C(=O)N(C)[C@@H](CCCNC(=N)N)C(=O)N[C@@H](CO)C(=O)N[C@@H](CC(=O)O)C(=O)N[C@@H]([C@@H](C)O)C(=O)N[C@@H](CC(C)C)C(=O)N[C@H](C(=O)N[C@H](Cc2cccc3ccccc23)C(=O)N[C@@H](CCC(=O)O)C(=O)N[C@H](CCCCNC(=O)COCC(=O)NCCCC[C@@H](NC(=O)[C@H](CCC(=O)O)NC(=O)[C@@H](Cc2cccc3ccccc23)NC(=O)[C@H]2NC(=O)[C@H](CC(C)C)NC(=O)[C@H]([C@@H](C)O)NC(=O)[C@H](CC(=O)O)NC(=O)[C@H](CO)NC(=O)[C@H](CCCNC(=N)N)N(C)C(=O)[C@@H](NC(C)=O)C(C)(C)SSC2(C)C)C(N)=O)C(N)=O)C(C)(C)SSC1(C)C` [compound 34] (I: Ac-[Pen][NMeR]SDTL[Pen][d1Nal]E[dK]-NH2 / II: Ac-[Pen][NMeR]SDTL[Pen][d1Nal]E[dK]-NH2; disulfide I:1-I:7, II:1-II:7; linker I:10-II:10 via Diglycolyl), the IC50 lay in the range of 0.025 to 0.05 µM.

In the case of `CC(=O)N[C@@H]1C(=O)N(C)[C@@H](CCCNC(=N)N)C(=O)N[C@@H](CO)C(=O)N[C@@H](CC(=O)O)C(=O)N[C@@H]([C@@H](C)O)C(=O)N[C@@H](CC(C)C)C(=O)N[C@H](C(=O)N[C@@H](Cc2c[nH]c3ccccc23)C(=O)N[C@H](Cc2ccccc2)C(=O)N[C@H](CCCCNC(=O)COCC(=O)NCCCC[C@@H](NC(=O)[C@@H](Cc2ccccc2)NC(=O)[C@H](Cc2c[nH]c3ccccc23)NC(=O)[C@H]2NC(=O)[C@H](CC(C)C)NC(=O)[C@H]([C@@H](C)O)NC(=O)[C@H](CC(=O)O)NC(=O)[C@H](CO)NC(=O)[C@H](CCCNC(=N)N)N(C)C(=O)[C@@H](NC(C)=O)C(C)(C)SSC2(C)C)C(N)=O)C(N)=O)C(C)(C)SSC1(C)C` [compound 91] (I: Ac-[Pen][NMeR]SDTL[Pen]W[dF][dK]-NH2 / II: Ac-[Pen][NMeR]SDTL[Pen]W[dF][dK]-NH2; disulfide I:1-I:7, II:1-II:7; linker I:10-II:10 via Diglycolyl), the IC50 is 0.1 to 0.5 µM.

For the compound `CC(=O)N[C@@H]1C(=O)N(C)[C@@H](CCCNC(=N)N)C(=O)N[C@@H](CO)C(=O)N[C@@H](CC(=O)O)C(=O)N[C@@H]([C@@H](C)O)C(=O)N[C@@H](CC(C)C)C(=O)N[C@H](C(=O)N[C@@H](Cc2c[nH]c3ccccc23)C(=O)N2CCC[C@H]2C(=O)N[C@H](CCCCNC(=O)COCC(=O)NCCCC[C@@H](NC(=O)[C@@H]2CCCN2C(=O)[C@H](Cc2c[nH]c3ccccc23)NC(=O)[C@H]2NC(=O)[C@H](CC(C)C)NC(=O)[C@H]([C@@H](C)O)NC(=O)[C@H](CC(=O)O)NC(=O)[C@H](CO)NC(=O)[C@H](CCCNC(=N)N)N(C)C(=O)[C@@H](NC(C)=O)C(C)(C)SSC2(C)C)C(N)=O)C(N)=O)C(C)(C)SSC1(C)C` [compound 94] (I: Ac-[Pen][NMeR]SDTL[Pen]WP[dK]-NH2 / II: Ac-[Pen][NMeR]SDTL[Pen]WP[dK]-NH2; disulfide I:1-I:7, II:1-II:7; linker I:10-II:10 via Diglycolyl), the IC50 fell in the range of 0.1 to 0.5 µM.

As to `CC(=O)N[C@@H]1C(=O)N(C)[C@@H](CCCNC(=N)N)C(=O)N[C@@H](CO)C(=O)N[C@@H](CC(=O)O)C(=O)N[C@@H]([C@@H](C)O)C(=O)N[C@@H](CC(C)C)C(=O)N[C@H](C(=O)N[C@@H](Cc2c[nH]cn2)C(=O)N[C@H](CCC(=O)O)C(=O)N[C@H](CCCCNC(=O)COCC(=O)NCCCC[C@@H](NC(=O)[C@@H](CCC(=O)O)NC(=O)[C@H](Cc2c[nH]cn2)NC(=O)[C@H]2NC(=O)[C@H](CC(C)C)NC(=O)[C@H]([C@@H](C)O)NC(=O)[C@H](CC(=O)O)NC(=O)[C@H](CO)NC(=O)[C@H](CCCNC(=N)N)N(C)C(=O)[C@@H](NC(C)=O)C(C)(C)SSC2(C)C)C(N)=O)C(N)=O)C(C)(C)SSC1(C)C` [compound 124] (I: Ac-[Pen][NMeR]SDTL[Pen]H[dE][dK]-NH2 / II: Ac-[Pen][NMeR]SDTL[Pen]H[dE][dK]-NH2; disulfide I:1-I:7, II:1-II:7; linker I:10-II:10 via Diglycolyl), the half-maximal inhibitory concentration (IC50) fell in the range of 0.1 to 0.5 µM.

Consider `CC(=O)N[C@@H]1C(=O)N(C)[C@@H](CCCNC(=N)N)C(=O)N[C@@H](CO)C(=O)N[C@@H](CC(=O)O)C(=O)N[C@@H]([C@@H](C)O)C(=O)N[C@@H](CC(C)C)C(=O)N[C@H](C(=O)N[C@@H](Cc2c[nH]c3ccccc23)C(=O)N[C@H](Cc2ccc(O)cc2)C(=O)N[C@H](CCCCNC(=O)COCC(=O)NCCCC[C@@H](NC(=O)[C@@H](Cc2ccc(O)cc2)NC(=O)[C@H](Cc2c[nH]c3ccccc23)NC(=O)[C@H]2NC(=O)[C@H](CC(C)C)NC(=O)[C@H]([C@@H](C)O)NC(=O)[C@H](CC(=O)O)NC(=O)[C@H](CO)NC(=O)[C@H](CCCNC(=N)N)N(C)C(=O)[C@@H](NC(C)=O)C(C)(C)SSC2(C)C)C(N)=O)C(N)=O)C(C)(C)SSC1(C)C` [compound 92] (I: Ac-[Pen][NMeR]SDTL[Pen]W[dY][dK]-NH2 / II: Ac-[Pen][NMeR]SDTL[Pen]W[dY][dK]-NH2; disulfide I:1-I:7, II:1-II:7; linker I:10-II:10 via Diglycolyl), for which the IC50 lay in the range of 0.05 to 0.1 µM.

Turning to `CC(C)CC(=O)N[C@@H]1C(=O)N(C)[C@@H](CCCNC(=N)N)C(=O)N[C@@H](CO)C(=O)N[C@@H](CC(=O)O)C(=O)N[C@@H]([C@@H](C)O)C(=O)N[C@@H](CC(C)C)C(=O)N[C@H](C(=O)N[C@@H](Cc2ccc(C(C)(C)C)cc2)C(=O)N[C@@H](CCC(=O)O)CC(=O)N[C@H](CCCCN)C(N)=O)C(C)(C)SSC1(C)C` [compound 177] (Isovaleryl-[Pen][NMeR]SDTL[Pen][Phe(4-tBu)][β3hE][dK]-NH2; disulfide 1-7), the IC50 lay in the range of 0.05 to 0.1 µM.

`CCCCCCCC/C=C\CCCCCCCC(=O)N[C@@H]1C(=O)N(C)[C@@H](CCCNC(=N)N)C(=O)N[C@@H](CO)C(=O)N[C@@H](CC(=O)O)C(=O)N[C@@H]([C@@H](C)O)C(=O)N[C@@H](CC(C)C)C(=O)N[C@H](C(=O)N[C@@H](Cc2ccc(C(C)(C)C)cc2)C(=O)N[C@@H](CCC(=O)O)CC(=O)N[C@H](CCCCN)C(N)=O)C(C)(C)SSC1(C)C` [compound 180] (Oleoyl-[Pen][NMeR]SDTL[Pen][Phe(4-tBu)][β3hE][dK]-NH2; disulfide 1-7): the IC50 fell in the range of 1 to 10 µM.

In the case of `CCCCCCCCCCCCCCCC(=O)N[C@@H]1C(=O)N(C)[C@@H](CCCNC(=N)N)C(=O)N[C@@H](CO)C(=O)N[C@@H](CC(=O)O)C(=O)N[C@@H]([C@@H](C)O)C(=O)N[C@@H](CC(C)C)C(=O)N[C@H](C(=O)N[C@@H](Cc2ccc(C(C)(C)C)cc2)C(=O)N[C@@H](CCC(=O)O)CC(=O)N[C@H](CCCCN)C(N)=O)C(C)(C)SSC1(C)C` [compound 178] (Palmitoyl-[Pen][NMeR]SDTL[Pen][Phe(4-tBu)][β3hE][dK]-NH2; disulfide 1-7), the IC50 lay in the range of 1 to 10 µM.

Take `CC(=O)N[C@@H]1C(=O)N(C)[C@@H](CCCNC(=N)N)C(=O)N[C@@H](CO)C(=O)N[C@@H](CC(=O)O)C(=O)N[C@@H]([C@@H](C)O)C(=O)N[C@@H](CC(C)C)C(=O)N[C@H](C(=O)N[C@@H](Cc2cccc3ccccc23)C(=O)N2Cc3ccccc3C[C@H]2C(=O)N[C@H](CCCCNC(=O)COCC(=O)NCCCC[C@@H](NC(=O)[C@@H]2Cc3ccccc3CN2C(=O)[C@H](Cc2cccc3ccccc23)NC(=O)[C@H]2NC(=O)[C@H](CC(C)C)NC(=O)[C@H]([C@@H](C)O)NC(=O)[C@H](CC(=O)O)NC(=O)[C@H](CO)NC(=O)[C@H](CCCNC(=N)N)N(C)C(=O)[C@@H](NC(C)=O)C(C)(C)SSC2(C)C)C(N)=O)C(N)=O)C(C)(C)SSC1(C)C` [compound 115] (I: Ac-[Pen][NMeR]SDTL[Pen][1Nal][Tic][dK]-NH2 / II: Ac-[Pen][NMeR]SDTL[Pen][1Nal][Tic][dK]-NH2; disulfide I:1-I:7, II:1-II:7; linker I:10-II:10 via Diglycolyl): the IC50 fell in the range of 0.1 to 0.5 µM.

Regarding `CC(=O)N[C@@H]1C(=O)N(C)[C@@H](CCCNC(=N)N)C(=O)N[C@@H](CO)C(=O)N[C@@H](CC(=O)O)C(=O)N[C@@H]([C@@H](C)O)C(=O)N[C@@H](CC(C)C)C(=O)N[C@H](C(=O)N[C@@H](Cc2ccccc2C(N)=O)C(=O)N[C@H](CCC(=O)O)C(=O)N[C@H](CCCCNC(=O)COCC(=O)NCCCC[C@@H](NC(=O)[C@@H](CCC(=O)O)NC(=O)[C@H](Cc2ccccc2C(N)=O)NC(=O)[C@H]2NC(=O)[C@H](CC(C)C)NC(=O)[C@H]([C@@H](C)O)NC(=O)[C@H](CC(=O)O)NC(=O)[C@H](CO)NC(=O)[C@H](CCCNC(=N)N)N(C)C(=O)[C@@H](NC(C)=O)C(C)(C)SSC2(C)C)C(N)=O)C(N)=O)C(C)(C)SSC1(C)C` [compound 98] (I: Ac-[Pen][NMeR]SDTL[Pen][Phe(2-CONH2)][dE][dK]-NH2 / II: Ac-[Pen][NMeR]SDTL[Pen][Phe(2-CONH2)][dE][dK]-NH2; disulfide I:1-I:7, II:1-II:7; linker I:10-II:10 via Diglycolyl), the half-maximal inhibitory concentration (IC50) lay in the range of 0.05 to 0.1 µM.

For `CC(=O)N[C@@H]1C(=O)N(C)[C@@H](CCCNC(=N)N)C(=O)N[C@@H](CO)C(=O)N[C@@H](CC(=O)O)C(=O)N[C@@H](Cc2ccccc2)C(=O)N[C@@H](CC(C)C)C(=O)N[C@H](C(=O)N[C@@H](Cc2ccc3ccccc3c2)C(=O)N[C@H](CCC(=O)O)C(N)=O)C(C)(C)SSC1(C)C` [compound 157] (Ac-[Pen][NMeR]SDFL[Pen][2Nal][dE]-NH2; disulfide 1-7), the concentration for half-maximal inhibition (IC50) was in the range of 1 to 10 µM.

For `CC(=O)N[C@@H]1C(=O)N(C)[C@@H](CCCNC(=N)N)C(=O)N[C@@H](CO)C(=O)N[C@@H](CC(=O)O)C(=O)N[C@@H]([C@@H](C)O)C(=O)N[C@@H](CC(C)C)C(=O)N[C@H](C(=O)N[C@@H](Cc2c[nH]c3ccccc23)C(=O)N[C@H](CCC(=O)O)C(=O)N[C@H](CCCCNC(=O)CN(CC(=O)NCCCC[C@@H](NC(=O)[C@@H](CCC(=O)O)NC(=O)[C@H](Cc2c[nH]c3ccccc23)NC(=O)[C@H]2NC(=O)[C@H](CC(C)C)NC(=O)[C@H]([C@@H](C)O)NC(=O)[C@H](CC(=O)O)NC(=O)[C@H](CO)NC(=O)[C@H](CCCNC(=N)N)N(C)C(=O)[C@@H](NC(C)=O)C(C)(C)SSC2(C)C)C(N)=O)C(=O)CCN)C(N)=O)C(C)(C)SSC1(C)C` [compound 70], the IC50 lay in the range of 0.025 to 0.05 µM.

These data come from patent publication US9809623B2, “α4β7 peptide monomer and dimer antagonists” (Protagonist Therapeutics, Inc., priority 2014, dated 2017).
